# Values quoted from earlier work, collected in patent US10179139B2, “Pharmaceutical composition” (CIPLA Limited, priority 2010, dated 2019).
# Settings: in vivo
row,Structure (SMILES),duration of action
1,"C[N+]1(C)[C@@H]2C[C@@H](OC(=O)C(O)(c3cccs3)c3cccs3)C[C@H]1[C@@H]1O[C@@H]12 [Tiotropium, (1α, 2β, 4β, 5α, 7β)-7-[(Hydroxydi-2-thienylacetyl)oxy]-9,9-dimethyl-3-oxa-9-azoniatricyclo[3.3.1.0^2,4]nonane bromide monohydrate]",up to 32 hours
2,"CCc1cc2c(cc1CC)CC(NC[C@H](O)c1ccc(O)c3[nH]c(=O)ccc13)C2 [Indacaterol, (R)-5-[2-[(5,6-Diethyl-2,3-dihydro-1H-inden-2-yl)amino]-1-hydroxyethyl]-8-hydroxyquinolin-2(1H)-one]",more than 24 hrs
